For one assay, the target named is T1, human leukocyte elastase (Homo sapiens, UniProt P08246).
T1 sequence (P08246 30-267): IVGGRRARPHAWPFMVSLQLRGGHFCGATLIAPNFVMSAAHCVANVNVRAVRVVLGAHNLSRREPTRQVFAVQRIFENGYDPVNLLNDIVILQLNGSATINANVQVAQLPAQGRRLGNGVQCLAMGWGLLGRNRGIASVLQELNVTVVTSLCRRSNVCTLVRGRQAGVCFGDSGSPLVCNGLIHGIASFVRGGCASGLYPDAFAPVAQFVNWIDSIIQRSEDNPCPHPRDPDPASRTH
Put plainly: Inhibition of human leukocyte elastase (kobs/[I], spectrophotometric, MeOSuc-Ala-Ala-Pro-Val-AMC substrate). The assay is classed as biochemical. As to the method:
(§1) Z-Ala-Ala-AlaCH2SO2-Im, prepared as in Example 1, was assayed for serine protease inhibition activity against human leukocyte elastase. Various concentrations of inhibitor were rapidly mixed with fixed aliquots of enzyme and allowed to react for at least two half-lives. Aliquots of the treated enzyme were then assayed spectrophotometrically for protease activity using MeOSuc-Ala-Ala-Pro-Val-AMC as the substrate to determine kobs/[I]. […] 359-361 (1975), incorporated herein by reference.

For another assay, the target named is T2, human cathepsin G (Homo sapiens, UniProt P08311).
T2 sequence (P08311 21-244): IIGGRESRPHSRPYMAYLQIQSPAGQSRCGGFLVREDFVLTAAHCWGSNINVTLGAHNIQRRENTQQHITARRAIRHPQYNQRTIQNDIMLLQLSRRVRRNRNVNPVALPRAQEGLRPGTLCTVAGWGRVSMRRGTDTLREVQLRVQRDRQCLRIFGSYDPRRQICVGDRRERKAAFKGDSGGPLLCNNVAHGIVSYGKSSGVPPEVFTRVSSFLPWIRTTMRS
Put plainly: Inhibition of human cathepsin G, assayed as in Example 2. It is filed as biochemical. As to conditions: present-tense example. As to the method: as §1
MeOSuc-Ala-Ala-Pro-ValCH2SO2-Im is prepared as in example 3 and assayed as in Example 2 for inhibition of human leukocyte elastase and human cathepsin G with the corresponding peptidyl chloromethane, MeOSuc-Gly-Leu-PheCH2SO2-Im, and Z-Ala-Ala-AlaCH2SO2-Im as comparator inhibitors.
Z-Gly-Leu-PheCH2SO2-Im is prepared as in Example 5, and is assayed as in Example 2 for inhibition of human cathepsin G and human leukocyte elastase with the corresponding peptidyl chloromethane, MeOSuc-Ala-Ala-Pro-ValCH2SO2-Im, and Z-Ala-Ala-AlaCH2SO2-Im as comparator inhibitors.

The mark [1] stands for this setting: enzyme concentration 200 μM, substrate 100 μM, inhibitor 200 μM.

With `CC(C)C[C@H](NC(=O)CNC(=O)OCc1ccccc1)C(=O)N[C@@H](Cc1ccccc1)CS(=O)(=O)n1ccnc1` [Z-Gly-Leu-PheCH2SO2-Im], on human leukocyte elastase (present-tense example), the “kobs/[I] against human leukocyte elastase compared with MeOSuc-Ala-Ala-Pro-ValCH2SO2-Im” value was “significantly lower”. Besides, the “kobs/[I] against human cathepsin G compared with comparator inhibitors” value on human cathepsin G (comparators: corresponding peptidyl chloromethane, MeOSuc-Ala-Ala-Pro-ValCH2SO2-Im, Z-Ala-Ala-AlaCH2SO2-Im) is “significantly higher”.

Regarding MeOSuc-Ala-Ala-Pro-ValCH2SO2-Im, the “kobs/[I] against human leukocyte elastase compared with comparator inhibitors” value at human leukocyte elastase (comparators: corresponding peptidyl chloromethane, MeOSuc-Gly-Leu-PheCH2SO2-Im, Z-Ala-Ala-AlaCH2SO2-Im, present-tense example) is listed as “significantly higher”. In addition, at human cathepsin G, the “kobs/[I] against human cathepsin G compared with MeOSuc-Gly-Leu-PheCH2SO2-Im” value is recorded as “significantly lower”.

For `C[C@H](NC(=O)OCc1ccccc1)C(=O)N[C@@H](C)C(=O)N[C@@H](C)CS(=O)(=O)n1ccnc1` [Z-Ala-Ala-AlaCH2SO2-Im], at human leukocyte elastase (comparator value as reported in Tuhy and Powers, FEBS Letters 50, 359-361 (1975)), the “times more potent than the corresponding peptidyl chloromethane inhibitor” value was 45 times. Moreover, on human leukocyte elastase (setting [1]), the kobs worked out at 0.0025 s⁻¹ and the “kobs/[I]” value amounted to 12.7 M⁻¹ s⁻¹.
